Literature values as cited in patent US6299888A, “Azelastine hydrochloride-containing percutaneous preparation having good percutaneous absorbability and reduced skin irritation” (Teikoku Seiyaku Kabushiki Kaisha, priority 1997, dated 2001).
Counter-ions that a name gives are not always drawn.

dissociation constant (pKa): about 9.5
Structure (SMILES): CN1CCCC(n2nc(Cc3ccc(Cl)cc3)c3ccccc3c2=O)CC1 (stereo not shown) [azelastine hydrochloride]
